Read-outs that look alike come from different tables or passages of the source. Marks after values point to notes of the source that are not given here.
Columns and labels:
Assay type in all cases: in vivo
ICR mice = assay: Triglyceride (TG) in blood plasma increase-inhibiting action due to lipid administration; settings: Mus musculus; male ICR mice, 5 mg/kg oral, lipid (Intralipos 20%) after 30 minutes, plasma TG 2 hours after lipid; read-out: Inhibiting rate of TG-increase in blood plasma (5 mg/kg)
Method: 6 to 9 weeks-old male ICR mice were fasted overnight, and Test compound suspended in 0.2% carboxymethyl cellulose solution was orally administered to the mice. A lipid (Intralipos 20%, OTSUKA PHARMACEUTICAL CO., LTD., 10 mL/kg) was orally administered after 30 minutes. Blood was collected from tail vein immediately before the lipid administration, and after 2 hours from the same to obtain blood plasma. Measurement of TG in blood plasma was carried out by using a triglyceride E Test Wako (Wako Pure Chemical Industries, Ltd.), and an increased value of TG in blood plasma by administration of the lipid was calculated. An increased value of TG in blood plasma in a solvent control group was used as a control, and an inhibiting rate in increase of TG in blood plasma in the Test compound administered group was calculated.

C57BL/6J mice = assay: Antifeeding activity (high fat diet intake up to 4 hours); settings: Mus musculus, male C57BL/6J mice, 5 mg/kg oral, food ingested up to 4 hours, read-out: Antifeeding rate (5 mg/kg)
Method: 7 to 10 weeks-old male C57BL/6J mice were fasted overnight, and the test compound suspended in 0.2% carboxymethylcellulose solution was orally administered. Immediately after the administration, high fat diet (Oriental Yeast Co., Ltd, 60 cal % fat) was provided and freely fed. An amount of food ingested up to 4 hours was measured, and a lowering rate (an antifeeding rate) of the amount of food ingested in the Test compound administered group was calculated as compared to that of the solvent control group as a control.

KK-Ay mice = assay: Weight gain-inhibiting action, hypoglycemic effect, insulin in blood plasma lowering action in KK-Ay mice; settings: male KK-Ay mice, high fat diet, 2 weeks; for inhibition in vivo at 30 mg/kg: Mus musculus, 336 h, 30 mg/kg/day oral
Method: To 8 weeks-old male KK-Ay mice were provided high fat diet (Oriental Yeast Co., Ltd, 60 cal % fat), and Test compound suspended in 0.2% carboxymethylcellulose solution was orally administered once a day. Oral administration was continued for 2 weeks, and a weight gain-inhibiting rate of the Test compound was calculated by using a weight gain amount of the solvent control group during the test period as 100%. After final administration, the mice were fasted overnight, and blood was collected from tail vein. Measurement of a blood-sugar level was carried out by using glucose Cα Test Wako (Wako Pure Chemical Industries, Ltd.), and measurement of insulin in blood plasma was carried out by using a mouse insulin measurement kit (Morinaga Institute of Biological Science, Inc.).

[1] = read-out: Hypoglycemic action (30 mg/kg/day)
[2] = read-out: Insulin in blood plasma-lowering action (30 mg/kg/day)
[3] = read-out: Weight gain-inhibiting action (30 mg/kg/day)
[4] = administration dose of 10 mg/kg/day oral

Structure (SMILES)	inhibition in vivo at 5 mg/kg (ICR mice) [%]	inhibition in vivo at 5 mg/kg (C57BL/6J mice) [%]	inhibition in vivo at 30 mg/kg (KK-Ay mice; [1]) [%]	inhibition in vivo at 30 mg/kg (KK-Ay mice; [2]) [%]	inhibition in vivo at 30 mg/kg (KK-Ay mice; [3]) [%]	Hypoglycemic action (KK-Ay mice; [4]) [%^#]	Insulin in blood plasma-lowering action (KK-Ay mice; [4]) [%^#]	Weight gain-inhibiting action (KK-Ay mice; [4]) [%^#]
CC(C)(COc1ccc(-c2ccc(-c3ncc(C(F)(F)F)[nH]3)cc2)cn1)C(=O)O [Example 3-3), 2,2-dimethyl-3-[(5-{4-[5-(trifluoromethyl)-1H-imidazol-2-yl]phenyl}pyridin-2-yl)oxy]propanoic acid]	78	76	41	51	52			
CC(C)(COc1ccc(-c2ccc(-c3ncc(C(F)(F)F)[nH]3)cn2)cc1F)C(=O)O [Example 4-2), 3-(2-fluoro-4-{5-[5-(trifluoromethyl)-1H-imidazol-2-yl]pyridin-2-yl}phenoxy)-2,2-dimethylpropanoic acid]	60	82	50	52	49			
Cc1cc(-c2ccc(OCC(C)(C)C(=O)O)cc2)ncc1-c1ncc(C(F)(F)F)[nH]1 [Example 5-3), 2,2-dimethyl-3-(4-{4-methyl-5-[5-(trifluoromethyl)-1H-imidazol-2-yl]pyridin-2-yl}-phenoxy)propanoic acid]	71	37	55	56	48			
CC(C)(COc1ccc(-c2ccc(-c3ncc(C4(C(F)(F)F)CC4)[nH]3)cn2)cc1)C(=O)O [Example 6-3), sodium 2,2-dimethyl-3-[4-(5-{5-[1-(trifluoromethyl)cyclopropyl]-1H-imidazol-2-yl]pyridin-2-yl}phenoxy)propanoate]	78	71	63	72				
CC(C)(COc1ccc(-c2cnc(-c3ncc(C(F)(F)F)[nH]3)cn2)cc1)C(=O)O [Example 7-7), 2,2-dimethyl-3-(4-{5-[5-(trifluoromethyl)-1H-imidazol-2-yl]pyrazin-2-yl}phenoxy)-propanoic acid]	71	75	62	58	66			
O=C(O)C1(COc2ccc(-c3ccc(-c4ncc(C(F)(F)F)[nH]4)cn3)cc2)CCC1 [Example 14]	69	66	23	27	17			
CCC(CC)(COc1ccc(-c2ccc(-c3ncc(C(F)(F)F)[nH]3)cn2)cn1)C(=O)O [Example 22]	76	69	40	47	30			
CCC(CC)(COc1ccc(-c2ccc(-c3ncc(C(F)(F)F)[nH]3)nc2)cn1)C(=O)O [Example 23]	85	63	-13	14	39			
CC(C)Cc1cnc(-c2ccc(-c3ccc(OCC(C)(C)C(=O)O)cc3)nc2)[nH]1 [Example 26]	67	79	40	27	44			
CC(C)(COc1ccc(-c2ccc(-c3ncc(C4CC(F)(F)C4)[nH]3)cn2)cc1)C(=O)O [Example 33]	54	44	42	41	39			
Cc1cc(OCC(C)(C)C(=O)O)ncc1-c1ccc(-c2ncc(C3(C(F)(F)F)CC3)[nH]2)nc1 [Example 36]	69	63	23	19	59			
Cc1cc(OCC(C)(C)C(=O)O)ncc1-c1ccc(-c2ncc(C3(C(F)(F)F)CC3)[nH]2)cc1 [Example 39]	54	76	44	50	38			
CC(C)(COc1ccc(-c2ccc(-c3ncc(C4(C(F)(F)F)CC4)[nH]3)c(F)c2)cn1)C(=O)O [Example 45]	71	72	59	56	42			
Cc1cc(OCC(C)(C)C(=O)O)ncc1-c1ccc(-c2ncc(C3(C(F)(F)F)CC3)[nH]2)c(F)c1 [Example 54-4), 3-{[5-(3-fluoro-4-{5-[1-(trifluoromethyl)cyclopropyl]-1H-imidazol-2-yl]phenyl)-4-methylpyridin-2-yl}oxy}-2,2-dimethylpropanoic acid]	74	46	74	93	113			
Cc1cc(OCC(C)(C)C(=O)O)ncc1-c1ccc(-c2ncc(C(F)(F)F)[nH]2)nc1 [Example 61-3), 2,2-dimethyl-3-({4-methyl-6′-[5-(trifluoromethyl)-1H-imidazol-2-yl]-3,3′-bipyridin-6-yl}oxy)propanoic acid]	68	80	60	77	90			
Cc1cc(OCC(C)(C)C(=O)O)ncc1-c1ccc(-c2ncc(C(F)(F)F)[nH]2)c(F)c1 [Example 62-3), 3-[(5-{3-fluoro-4-[5-(trifluoromethyl)-1H-imidazol-2-yl]phenyl}-4-methylpyridin-2-yl)oxy]-2,2-dimethylpropanoic acid]	85	63	80	95	161			
Cc1cc(OCC(C)(C)C(=O)O)ncc1-c1ccc(-c2ncc(C(F)(F)F)[nH]2)c(Cl)c1 [Example 63-3), 3-[(5-{3-chloro-4-[5-(trifluoromethyl)-1H-imidazol-2-yl]phenyl}-4-methylpyridin-2-yl)oxy]-2,2-dimethylpropanoic acid]	60	83	77	90	115			
CC(C)(COc1ccc(-c2ccc(-c3ncc(C(F)(F)F)[nH]3)nc2)cn1)C(=O)O [Example 66]	83	76	10	38	46			
CC(C)(COc1ccc(-c2ccc(-c3ncc(C(F)(F)C(F)(F)F)[nH]3)cn2)cc1)C(=O)O [Example 69]	85	87				61	37	43
Cc1cc(OCC2(C(=O)O)CCC2)ccc1-c1ccc(-c2ncc(C(F)(F)F)[nH]2)cn1 [Example 70]	67	59	52	27	45			
Cc1cc(OCC(C)(C)C(=O)O)ncc1-c1ccc(-c2ncc(C(F)(F)F)[nH]2)cn1 [Example 72]	85	65	38	28	43			
Cc1cc(OCC(C)(C)C(=O)O)ncc1-c1ccc(-c2ncc(C(F)(F)F)[nH]2)cc1 [Example 73]	88	82	40	69	62			
CC(C)(COc1ccc(-c2cnc(-c3ncc(C(F)(F)F)[nH]3)c(F)c2)cn1)C(=O)O [Example 141]	82	55						
CC(C)(COc1ncc(-c2ccc(-c3ncc(C(C)(C)C(F)(F)F)[nH]3)cc2)cc1F)C(=O)O [Example 143]	55	4						

Source: US9302996B2, “Continuous arycyclic compound” (MITSUBISHI TANABE PHARMA CORPORATION, priority 2010, dated 2016)
